According to US10829778B2, “Plants having increased tolerance to herbicides” (BASF SE, priority 2013, dated 2020):

Legend:
[1] = biological target: T1, Arabidopsis HPPD (SEQ ID: 53) M335H, P336G (Arabidopsis thaliana, UniProt P93836, M335H/P336G); experiment: HPPD activity assay, mutant enzyme; type: biochemical; conditions: Table 15, normalized to Arabidopsis wild-type
T1 construct: PCR-based site directed mutagenesis of pEXP5-NT/TOPO®-AtHPPD; His6 (N); made in house; host or cells: E. coli BL21 (DE3)
T1 sequence (P93836 whole entry M335H/P336G): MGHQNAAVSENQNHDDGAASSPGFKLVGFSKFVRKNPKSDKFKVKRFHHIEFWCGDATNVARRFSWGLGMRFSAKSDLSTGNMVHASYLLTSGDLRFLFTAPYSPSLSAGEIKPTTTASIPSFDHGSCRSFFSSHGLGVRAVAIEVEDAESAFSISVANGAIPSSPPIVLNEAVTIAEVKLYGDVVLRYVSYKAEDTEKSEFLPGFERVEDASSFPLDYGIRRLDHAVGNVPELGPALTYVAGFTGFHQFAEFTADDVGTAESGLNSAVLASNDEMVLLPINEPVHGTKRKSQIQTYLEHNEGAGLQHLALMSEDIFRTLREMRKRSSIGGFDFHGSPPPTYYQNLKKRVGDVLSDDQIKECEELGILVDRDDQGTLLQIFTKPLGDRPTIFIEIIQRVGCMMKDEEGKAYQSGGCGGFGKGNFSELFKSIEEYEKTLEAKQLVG
Method: (§1) HPPD produces homogentisic acid and CO2 from 4-hydroxyphenylpyruvate (4-HPP) and O2. The activity assay for HPPD is based on the analysis of homogentisic acid by reversed phase HPLC.
(§2) The assay mixture can contain 150 mM potassium phosphate buffer pH 7.0, 50 mM L-ascorbic acid, 100 μM Catalase (Sigma-Aldrich), 1 μM FeSO4 and 0.2 units of purified HPPD enzyme in a total volume of 505 μl. 1 unit is defined as the amount of enzyme that is required to produce 1 nmol of HGA per minute at 20° C.
(§3) After a preincubation of 30 min the reaction is started by adding 4-HPP to a final concentration of 0.05 mM. The reaction is allowed to proceed for 45 min at room temperature. The reaction is stopped by the addition of 50 μl of 4.5 M phosphoric acid. The sample is filtered using a […] pore size PVDF filtration device.
(§4) 5 μl of the cleared sample is analyzed on an UPLC HSS T3 column (particle size 1.8 μm, dimensions 2.1×50 mm; Waters) by isocratic elution using 90% 20 mM NaH2PO4 pH 2.2, 10% methanol (v/v).
(§5) HGA is detected electrochemically at 750 mV (mode: DC; polarity: positive) and quantified by integrating peak areas (Empower software; Waters).
(§6) Inhibitors are dissolved in DMSO (dimethylsulfoxide) to a concentration of 0.5 mM. From this stock solution serial five-fold dilutions are prepared in DMSO, which are used in the assay. The respective inhibitor solution accounts for 1% of the assay volume. […] Activities are normalized by setting the uninhibited enzyme activity to 100%. IC50 values are calculated using non-linear regression.
(§7) Purified, mutant HPPD enzymes are obtained by the methods described above. Dose response and kinetic measurements are carried out using the described HPPD activity assay. Apparent michaelis constants (Km) and maximal reaction velocities (Vmax) are calculated by non-linear regression with the software GraphPad Prism 5 (GraphPad Software, La Jolla, USA) using a substrate inhibition model. […] Weighted means (by standard error) of Km and IC50 values are calculated from at least three independent experiments.
(§8) Field performance of the optimized HPPD enzyme, which is used as a herbicide tolerance trait may depend not only on its lack of sensitivity towards HPPD inhibiting herbicides but also on its activity. To assess the potential performance of a herbicide tolerance trait a tolerance index (TI) is calculated using the following formula: […]
(§9) Easy comparison and ranking of each trait is enabled by normalizing tolerance indexes on Arabidopsis or Hordeum wild-type HPPD.

[2] = biological target: T2, Hordeum HPPD (SEQ ID: 2) I416V (Hordeum vulgare, UniProt O48604, A164G/I416V/R146V/R147D/R148G); experiment: HPPD activity assay, mutant enzyme; type: biochemical; conditions: Table 16, normalized to Hordeum wild-type
T2 construct: His tag (N); made in house; host or cells: E. coli BL21 (DE3)
T2 sequence (O48604 whole entry R146V/R147D/R148G/A164G/I416V): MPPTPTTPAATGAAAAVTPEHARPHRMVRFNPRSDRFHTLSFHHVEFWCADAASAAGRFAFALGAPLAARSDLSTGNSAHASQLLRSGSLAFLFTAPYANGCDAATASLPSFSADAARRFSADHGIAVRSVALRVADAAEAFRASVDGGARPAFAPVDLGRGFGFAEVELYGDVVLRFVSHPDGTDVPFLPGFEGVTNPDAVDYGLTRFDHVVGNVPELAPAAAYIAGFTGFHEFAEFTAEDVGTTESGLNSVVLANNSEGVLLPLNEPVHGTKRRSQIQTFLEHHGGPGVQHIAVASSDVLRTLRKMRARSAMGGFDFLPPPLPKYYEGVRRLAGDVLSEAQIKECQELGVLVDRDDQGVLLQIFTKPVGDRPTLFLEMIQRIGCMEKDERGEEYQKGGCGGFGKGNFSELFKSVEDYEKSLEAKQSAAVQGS
Method: as §1, §2, §3, §4, §5, §6, §7, §8, §9

[3] = biological target: T3, HvHPPD G407C (SEQ ID: 2) (Hordeum vulgare, UniProt O48604, A164G/G407C/R146V/R147D/R148G); experiment: HPPD activity assay, mutant enzyme; type: biochemical; conditions: Table 16, normalized to Hordeum wild-type
T3 construct: His tag (N); made in house; host or cells: E. coli BL21 (DE3)
T3 sequence (O48604 whole entry R146V/R147D/R148G/A164G/G407C): as the sequence (O48604 whole entry R146V/R147D/R148G/A164G/I416V) above, with G407C, V416I counted along it
Method: as §1, §2, §3, §4, §5, §6, §7, §8, §9

[4] = biological target: T4, Hordeum HPPD (SEQ ID: 2) L250M (Hordeum vulgare, UniProt O48604, A164G/L250M/R146V/R147D/R148G); experiment: HPPD activity assay, mutant enzyme; type: biochemical; conditions: Table 16, normalized to Hordeum wild-type
T4 construct: His tag (N); made in house; host or cells: E. coli BL21 (DE3)
T4 sequence (O48604 whole entry R146V/R147D/R148G/A164G/L250M): as the sequence (O48604 whole entry R146V/R147D/R148G/A164G/I416V) above, with L250M, V416I counted along it
Method: as §1, §2, §3, §4, §5, §6, §7, §8, §9

[5] = biological target: T5, Hordeum HPPD (SEQ ID: 2) F404L (Hordeum vulgare, UniProt O48604, A164G/F404L/R146V/R147D/R148G); experiment: HPPD activity assay, mutant enzyme; type: biochemical; conditions: Table 16, normalized to Hordeum wild-type
T5 construct: His tag (N); made in house; host or cells: E. coli BL21 (DE3)
T5 sequence (O48604 whole entry R146V/R147D/R148G/A164G/F404L): as the sequence (O48604 whole entry R146V/R147D/R148G/A164G/I416V) above, with F404L, V416I counted along it
Method: as §1, §2, §3, §4, §5, §6, §7, §8, §9

[6] = biological target: T6, HvHPPD L353M, P321R, L320Q (SEQ ID: 2) (Hordeum vulgare, UniProt O48604, L320Q/L353M/P321R); experiment: HPPD activity assay, mutant enzyme; type: biochemical; conditions: Table 16, normalized to Hordeum wild-type
T6 construct: His tag (N); made in house; host or cells: E. coli BL21 (DE3)
T6 sequence (O48604 whole entry R146V/R147D/R148G/A164G/L320Q/P321R/L353M): as the sequence (O48604 whole entry R146V/R147D/R148G/A164G/I416V) above, with L320Q, P321R, L353M, V416I counted along it
Method: as §1, §2, §3, §4, §5, §6, §7, §8, §9

[7] = biological target: T7, HvHPPD L320H (SEQ ID: 2) (Hordeum vulgare, UniProt O48604, A164G/L320H/R146V/R147D/R148G); experiment: HPPD activity assay, mutant enzyme; type: biochemical; conditions: Table 16, normalized to Hordeum wild-type
T7 construct: His tag (N); made in house; host or cells: E. coli BL21 (DE3)
T7 sequence (O48604 whole entry R146V/R147D/R148G/A164G/L320H): as the sequence (O48604 whole entry R146V/R147D/R148G/A164G/I416V) above, with L320H, V416I counted along it
Method: as §1, §2, §3, §4, §5, §6, §7, §8, §9

[8] = biological target: T8, Hordeum HPPD (SEQ ID: 2) R309K (Hordeum vulgare, UniProt O48604, A164G/R146V/R147D/R148G/R309K); experiment: HPPD activity assay, mutant enzyme; type: biochemical; conditions: Table 16, normalized to Hordeum wild-type
T8 construct: His tag (N); made in house; host or cells: E. coli BL21 (DE3)
T8 sequence (O48604 whole entry R146V/R147D/R148G/A164G/R309K): as the sequence (O48604 whole entry R146V/R147D/R148G/A164G/I416V) above, with R309K, V416I counted along it
Method: as §1, §2, §3, §4, §5, §6, §7, §8, §9

[9] = biological target: T9, HvHPPD L320H, P321A (SEQ ID: 2) (Hordeum vulgare, UniProt O48604, L320H/P321A); experiment: HPPD activity assay, mutant enzyme; type: biochemical; conditions: Table 16, normalized to Hordeum wild-type
T9 construct: His tag (N); made in house; host or cells: E. coli BL21 (DE3)
T9 sequence (O48604 whole entry R146V/R147D/R148G/A164G/L320H/P321A): as the sequence (O48604 whole entry R146V/R147D/R148G/A164G/I416V) above, with L320H, P321A, V416I counted along it
Method: as §1, §2, §3, §4, §5, §6, §7, §8, §9

[10] = biological target: T10, Arabidopsis HPPD (SEQ ID: 53) M335H, P336A (Arabidopsis thaliana, UniProt P93836, M335H/P336A); experiment: HPPD activity assay, mutant enzyme; type: biochemical; conditions: Table 15, normalized to Arabidopsis wild-type
T10 construct: PCR-based site directed mutagenesis of pEXP5-NT/TOPO®-AtHPPD; His6 (N); made in house; host or cells: E. coli BL21 (DE3)
T10 sequence (P93836 whole entry M335H/P336A): as the sequence (P93836 whole entry M335H/P336G) above, with G336A counted along it
Method: as §1, §2, §3, §4, §5, §6, §7, §8, §9

[11] = biological target: T11, HvHPPD L320Q (SEQ ID: 2) (Hordeum vulgare, UniProt O48604, A164G/L320Q/R146V/R147D/R148G); experiment: HPPD activity assay, mutant enzyme; type: biochemical; conditions: Table 16, normalized to Hordeum wild-type
T11 construct: His tag (N); made in house; host or cells: E. coli BL21 (DE3)
T11 sequence (O48604 whole entry R146V/R147D/R148G/A164G/L320Q): as the sequence (O48604 whole entry R146V/R147D/R148G/A164G/I416V) above, with L320Q, V416I counted along it
Method: as §1, §2, §3, §4, §5, §6, §7, §8, §9

[12] = biological target: T12, Arabidopsis HPPD (SEQ ID: 53) F381I (Arabidopsis thaliana, UniProt P93836, F381I); experiment: HPPD activity assay, mutant enzyme; type: biochemical; conditions: Table 15, normalized to Arabidopsis wild-type
T12 construct: PCR-based site directed mutagenesis of pEXP5-NT/TOPO®-AtHPPD; His6 (N); made in house; host or cells: E. coli BL21 (DE3)
T12 sequence (P93836 whole entry F381I): as the sequence (P93836 whole entry M335H/P336G) above, with H335M, G336P, F381I counted along it
Method: as §1, §2, §3, §4, §5, §6, §7, §8, §9

[13] = biological target: T13, Arabidopsis HPPD (SEQ ID: 53) M335H, P336A, E363Q (Arabidopsis thaliana, UniProt P93836, E363Q/M335H/P336A); experiment: HPPD activity assay, mutant enzyme; type: biochemical; conditions: Table 15, normalized to Arabidopsis wild-type
T13 construct: PCR-based site directed mutagenesis of pEXP5-NT/TOPO®-AtHPPD; His6 (N); made in house; host or cells: E. coli BL21 (DE3)
T13 sequence (P93836 whole entry M335H/P336A/E363Q): as the sequence (P93836 whole entry M335H/P336G) above, with G336A, E363Q counted along it
Method: as §1, §2, §3, §4, §5, §6, §7, §8, §9

[14] = test system: non-transgenic Arabidopsis plants (WT); experiment: Greenhouse herbicide spray test, Arabidopsis plants (T2); type: in vivo, Arabidopsis thaliana; conditions: two weeks after treatment
Excerpt: For post emergence treatment, the test plants are first grown to a height of 3 to 15 cm, depending on the plant habit, and only then treated with the herbicides. For this purpose, the test plants are either sown directly and grown in the same containers, or they are first grown separately and transplanted into the test containers a few days prior to treatment.
Additionally, T1 and T2 transgenic Arabidopsis plants can be tested for improved tolerance to N-heterocyclyl-arylcarboxamides in a greenhouse studies. Herbicide injury scoring is done 2-3 weeks after treatment and is rated on a scale of 0 to 100%, 0% being no injury and 100% being complete death.

## Cc1nonc1NC(=O)c1ccc(S(C)(=O)=O)c(S(C)(=O)=O)c1C [Inhibitor 1, 2-methyl-N-(4-methyl-1,2,5-oxadiazol-3-yl)-3,4-bis(methylsulfonyl)benzamide]
[1]
  Normalized tolerance index TI Inhibitor 1: 3.6
[2]
  Normalized tolerance index TI Inhibitor 1: 1.7
[3]
  Normalized tolerance index TI Inhibitor 1: 5
[4]
  Normalized tolerance index TI Inhibitor 1: 2.1
[5]
  Normalized tolerance index TI Inhibitor 1: 4.6
[6]
  Normalized tolerance index TI Inhibitor 1: 12.6
[7]
  Normalized tolerance index TI Inhibitor 1: 4.4
[8]
  Normalized tolerance index TI Inhibitor 1: 1.6
[9]
  Normalized tolerance index TI Inhibitor 1: 5.3
[10]
  Normalized tolerance index TI Inhibitor 1: 2.4
[11]
  Normalized tolerance index TI Inhibitor 1: 1.1
[12]
  Normalized tolerance index TI Inhibitor 1: 37
[13]
  Normalized tolerance index TI Inhibitor 1: 6.7
[14]; WT (control of AtHPPD events), 1.56 g/ha
  Injury evaluation: 92%
[14]; WT (control of AtHPPD events), 3.125 g/ha
  Injury evaluation: 91%
[14]; WT (control of AtHPPD events), 6.25 g/ha
  Injury evaluation: 97%
[14]; WT (control of AtHPPD events), 12.5 g/ha
  Injury evaluation: 97%
[14]; WT (control of HvHPPD events), 1.56 g/ha
  Injury evaluation: 98%
[14]; WT (control of HvHPPD events), 3.125 g/ha
  Injury evaluation: 98%
[14]; WT (control of HvHPPD events), 6.25 g/ha
  Injury evaluation: 100%
[14]; WT (control of HvHPPD events), 12.5 g/ha
  Injury evaluation: 100%
